The results in this text go back to the supplement of paper PMC12137928.

Each structure is given as a SMILES string. Counter-ions that a name gives are not always drawn. Some results are limits rather than exact numbers.

The experiment deals with HCT116. As to conditions: 72 h. Summed up: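 IC50 and maximal efficacy were derived from four-parameter Hill curve fits. The underlying CellTiter-Glo luminescence was scaled so that vehicle equals 0% and positive control equals -100%, and was then pattern-corrected. HCT116 cells had been seeded in 1536-well plates at 250 per well.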

Take `Cc1ccccc1N1CCN(CCc2nnc3n2CCCC3)CC1` [Dapiprazole hydrochloride]: the IC50 cell viability runs as follows: (ICRF193 0 nM) greater than 45.8 µM; (ICRF193 200 nM) greater than 45.8 µM.

With `O=C(OCc1ccccc1)c1cccnc1` [BENZYL NICOTINATE], the IC50 cell viability runs as follows: (ICRF193 0 nM) greater than 45.8 µM; (ICRF193 200 nM) greater than 45.8 µM.

In the case of `CC(=O)OC[C@H]1O[C@@H](n2ccc(=O)[nH]c2=O)[C@H](OC(C)=O)[C@@H]1OC(C)=O` [Uridine triacetate], the IC50 cell viability reads like this: (ICRF193 0 nM) greater than 45.8 µM; (ICRF193 200 nM) greater than 45.8 µM.

As to `O=C(O)c1cc(O)c(O)c(O)c1` [Gallic acid], the IC50 cell viability was greater than 45.8 µM (ICRF193 0 nM) and greater than 45.8 µM (ICRF193 200 nM).

Take `CCOc1cc(OCC)c(C(=O)CCC(=O)O)cc1OCC` [Trepibutone]: the IC50 cell viability was greater than 45.8 µM (ICRF193 0 nM) and greater than 45.8 µM (ICRF193 200 nM).

On to `C#C[C@]1(OC(C)=O)CC[C@H]2[C@@H]3CCC4=CC(=O)CC[C@@H]4[C@H]3CC[C@@]21C` [NORETHINDRONE ACETATE], for which the IC50 cell viability runs as follows: (ICRF193 0 nM) greater than 45.8 µM; (ICRF193 200 nM) greater than 45.8 µM.

Regarding `Cc1cc(C)c(NC(=O)CN(CC(=O)O)CC(=O)O)c(C)c1Br` [Mebrofenin], the IC50 cell viability is greater than 45.8 µM (ICRF193 0 nM) and greater than 45.8 µM (ICRF193 200 nM).

`O=S(O)CNc1ccc(S(=O)(=O)c2ccc(NCS(=O)O)cc2)cc1` [Adesulfone sodium]: the IC50 cell viability (ICRF193 0 nM) is greater than 45.8 µM and the IC50 cell viability (ICRF193 200 nM) was greater than 45.8 µM.

For the compound `CCN1CCN(C(=O)N[C@@H](C(=O)N[C@@H]2C(=O)N3C(C(=O)O)=C(CSc4nnnn4C)CS[C@H]23)c2ccc(O)cc2)C(=O)C1=O` [Cefoperazone sodium], the IC50 cell viability is greater than 45.8 µM (ICRF193 0 nM) and greater than 45.8 µM (ICRF193 200 nM).

As for `CN1CCN(C2=Nc3cc(Cl)ccc3Nc3ccccc32)CC1` [Clozapine], the IC50 cell viability is greater than 45.8 µM (ICRF193 0 nM) and greater than 45.8 µM (ICRF193 200 nM).

With `CO/N=C(\C(=O)N[C@@H]1C(=O)N2C(C(=O)[O-])=C(C[n+]3ccn4ncccc43)CS[C@H]12)c1nsc(N)n1` [Cefozopran hydrochloride], the IC50 cell viability reads like this: (ICRF193 0 nM) greater than 45.8 µM; (ICRF193 200 nM) greater than 45.8 µM.

For the compound `COc1ccc2c(c1)c(CC(=O)O)c(C)n2C(=O)c1ccc(Cl)cc1` [Indomethacin], the IC50 cell viability runs as follows: (ICRF193 0 nM) greater than 45.8 µM; (ICRF193 200 nM) greater than 45.8 µM.

For `Nc1nc(N)nc(-c2cc(Cl)ccc2Cl)n1` [Irsogladine maleate], the IC50 cell viability (ICRF193 0 nM) is greater than 45.8 µM and the IC50 cell viability (ICRF193 200 nM) was greater than 45.8 µM.

Consider `Nc1ccc(S(=O)(=O)Nc2cnc3ccccc3n2)cc1` [Sulfaquinoxaline], for which the IC50 cell viability is greater than 45.8 µM (ICRF193 0 nM) and greater than 45.8 µM (ICRF193 200 nM).

For `Clc1ccc(Cn2c(CN3CCCC3)nc3ccccc32)cc1` [Clemizole hydrochloride], the IC50 cell viability by setting is: (ICRF193 0 nM) greater than 45.8 µM; (ICRF193 200 nM) greater than 45.8 µM.

Regarding `CCN1CCN(c2cc3c(cc2F)c(=O)c(C(=O)O)cn3C2CC2)CC1` [Enrofloxacin], the IC50 cell viability by setting is: (ICRF193 0 nM) greater than 45.8 µM; (ICRF193 200 nM) greater than 45.8 µM.

Consider `CCCCCCCCCCCCCCCCCC(=O)OCCO` [2-Hydroxyethyl octadecanoate], for which the IC50 cell viability by setting is: (ICRF193 0 nM) greater than 45.8 µM; (ICRF193 200 nM) greater than 45.8 µM.

For `Cc1ccc(=O)n(-c2ccccc2)c1` [Pirfenidone], the IC50 cell viability was greater than 45.8 µM (ICRF193 0 nM) and greater than 45.8 µM (ICRF193 200 nM).

In the case of `C[N+]1(CCF)[C@@H]2CC[C@H]1C[C@@H](OC(=O)C(O)(c1ccccc1)c1ccccc1)C2` (stereo partly specified) [Flutropium bromide], the IC50 cell viability runs as follows: (ICRF193 0 nM) greater than 45.8 µM; (ICRF193 200 nM) greater than 45.8 µM.

Regarding `CN(C)CCc1c[nH]c2ccc(CS(=O)(=O)N3CCCC3)cc12` [Almotriptan], the IC50 cell viability is, setting by setting: (ICRF193 0 nM) greater than 45.8 µM; (ICRF193 200 nM) greater than 45.8 µM.

Take `CN(C(=O)CO)c1c(I)c(C(=O)NCC(O)CO)c(I)c(C(=O)NCC(O)CO)c1I` (stereo unspecified) [Iomeprol]: the IC50 cell viability was greater than 45.8 µM (ICRF193 0 nM) and greater than 45.8 µM (ICRF193 200 nM).

Turning to `Clc1ccc(C(c2ccccc2Cl)C(Cl)Cl)cc1` (stereo unspecified) [Mitotane], the IC50 cell viability by setting is: (ICRF193 0 nM) greater than 45.8 µM; (ICRF193 200 nM) greater than 45.8 µM.

For the compound `CC(=O)OCC(=O)NCCCOc1cccc(CN2CCCCC2)c1` [Roxatidine acetate hydrochloride], the IC50 cell viability runs as follows: (ICRF193 0 nM) greater than 45.8 µM; (ICRF193 200 nM) greater than 45.8 µM.

Take `COc1nc(N)nc2c1ncn2[C@@H]1O[C@H](CO)[C@@H](O)[C@@H]1O` [Nelarabine]: the IC50 cell viability (ICRF193 0 nM) is greater than 45.8 µM and the IC50 cell viability (ICRF193 200 nM) is greater than 45.8 µM.

As to `O=C1c2ccccc2C(=O)c2ccccc21` [Anthraquinone], the IC50 cell viability runs as follows: (ICRF193 0 nM) greater than 45.8 µM; (ICRF193 200 nM) greater than 45.8 µM.

On to `COc1ccc(NC(=O)c2ccc(C(=N)N(C)C)cc2)c(C(=O)Nc2ccc(Cl)cn2)c1` [Betrixaban], for which the IC50 cell viability runs as follows: (ICRF193 0 nM) greater than 45.8 µM; (ICRF193 200 nM) greater than 45.8 µM.

For `O=C(C[S+]([O-])Cc1ccco1)NC/C=C\COc1cc(CN2CCCCC2)ccn1` (stereo unspecified) [Lafutidine], the IC50 cell viability runs as follows: (ICRF193 0 nM) greater than 45.8 µM; (ICRF193 200 nM) greater than 45.8 µM.

In the case of `CCN(CC)C(C)CN1c2ccccc2Sc2ccccc21` (stereo unspecified) [Ethopropazine hydrochloride], the IC50 cell viability reads like this: (ICRF193 0 nM) greater than 45.8 µM; (ICRF193 200 nM) greater than 45.8 µM.

As to `CCOc1ccccc1C(N)=O` [2-Ethoxybenzamide], the IC50 cell viability (ICRF193 0 nM) was greater than 45.8 µM and the IC50 cell viability (ICRF193 200 nM) was greater than 45.8 µM.

For the compound `CC#CCC(C)[C@H](O)/C=C/[C@@H]1[C@H]2c3cccc(CCCC(=O)O)c3O[C@H]2C[C@H]1O` (mixture of isomers) [Beraprost sodium], the IC50 cell viability (ICRF193 0 nM) is greater than 45.8 µM and the IC50 cell viability (ICRF193 200 nM) was greater than 45.8 µM.

`NCc1ccc(S(N)(=O)=O)cc1` [Mafenide hydrochloride] registered an IC50 cell viability (ICRF193 0 nM) greater than 45.8 µM and an IC50 cell viability (ICRF193 200 nM) greater than 45.8 µM.

Regarding `Nc1ccc(S(=O)(=O)Nc2ccnn2-c2ccccc2)cc1` [Sulfaphenazole], the IC50 cell viability runs as follows: (ICRF193 0 nM) greater than 45.8 µM; (ICRF193 200 nM) greater than 45.8 µM.

On to `Nc1c(Br)cc(Br)cc1CN[C@H]1CC[C@H](O)CC1` [Ambroxol hydrochloride], for which the IC50 cell viability runs as follows: (ICRF193 0 nM) greater than 45.8 µM; (ICRF193 200 nM) greater than 45.8 µM.

As for `CCOC(=O)/C=C(C)/C=C/C[C@@H](C)CCCC(C)C` [S-Hydroprene], the IC50 cell viability is greater than 45.8 µM (ICRF193 0 nM) and greater than 45.8 µM (ICRF193 200 nM).

`Nc1c2c(nc3ccccc13)CCCC2` [Tacrine hydrochloride] came in with an IC50 cell viability (ICRF193 0 nM) greater than 45.8 µM and an IC50 cell viability (ICRF193 200 nM) greater than 45.8 µM.

For `CC/C=C\C/C=C\C/C=C\CCCCCCCC(=O)O` [Linolenic acid], the IC50 cell viability is, setting by setting: (ICRF193 0 nM) greater than 45.8 µM; (ICRF193 200 nM) greater than 45.8 µM.

Regarding `c1ccc2c(c1)CCCC2C1=NCCN1` (stereo unspecified) [Tetrahydrozoline HCl], the IC50 cell viability is, setting by setting: (ICRF193 0 nM) greater than 45.8 µM; (ICRF193 200 nM) greater than 45.8 µM.

Turning to `COC(=O)N(C)c1c(N)nc(-c2nn(Cc3ccccc3F)c3ncccc23)nc1N` [Riociguat], the IC50 cell viability was greater than 45.8 µM (ICRF193 0 nM) and greater than 45.8 µM (ICRF193 200 nM).

Take `Cc1ncc(C[n+]2csc(CCO)c2C)c(N)n1` [Thiamine hydrochloride]: the IC50 cell viability is greater than 45.8 µM (ICRF193 0 nM) and greater than 45.8 µM (ICRF193 200 nM).

As to `c1ccc(C2(c3ccccc3)CC2C2=NCCN2)cc1` (stereo unspecified) [Cibenzoline succinate], the IC50 cell viability is greater than 45.8 µM (ICRF193 0 nM) and greater than 45.8 µM (ICRF193 200 nM).

With `OCCc1ccccc1` [2-Phenylethanol], the IC50 cell viability runs as follows: (ICRF193 0 nM) greater than 45.8 µM; (ICRF193 200 nM) greater than 45.8 µM.

`CO[C@H]1[C@@H](O)[C@H](N)[C@@H](O[C@H]2O[C@H]([C@H](C)N)CC[C@H]2N)[C@H](O)[C@@H]1N(C)C(=O)CN` [Astromicin]: the IC50 cell viability is, setting by setting: (ICRF193 0 nM) greater than 45.8 µM; (ICRF193 200 nM) greater than 45.8 µM.

As to `CC(C)(Oc1ccc(C2CC2(Cl)Cl)cc1)C(=O)O` (stereo unspecified) [Ciprofibrate], the IC50 cell viability was greater than 45.8 µM (ICRF193 0 nM) and greater than 45.8 µM (ICRF193 200 nM).

Consider `CCCCN1C[C@H](O)[C@@H](O)[C@H](O)[C@H]1CO` [Miglustat], for which the IC50 cell viability by setting is: (ICRF193 0 nM) greater than 45.8 µM; (ICRF193 200 nM) greater than 45.8 µM.

For `CN[C@@H]1[C@@H](O)[C@@H](O[C@@H]2[C@H](O)[C@H](O[C@H]3OC(CN)=CC[C@H]3N)[C@@H](N)C[C@H]2N)OC[C@]1(C)O` [Pentisomicin], the IC50 cell viability was greater than 45.8 µM (ICRF193 0 nM) and greater than 45.8 µM (ICRF193 200 nM).

On to `N=C(N)NCCC[C@H](N)C(=O)O` [L-Arginine], for which the IC50 cell viability is, setting by setting: (ICRF193 0 nM) greater than 45.8 µM; (ICRF193 200 nM) greater than 45.8 µM.

`CNC[C@H](O)c1cccc(O)c1` [Phenylephrine hydrochloride] showed an IC50 cell viability (ICRF193 0 nM) greater than 45.8 µM and an IC50 cell viability (ICRF193 200 nM) greater than 45.8 µM.

As for `CN(C(=O)/C=C/c1ccoc1)[C@@H]1CC[C@@]2(O)[C@H]3Cc4ccc(O)c5c4[C@@]2(CCN3CC2CC2)[C@H]1O5` [Nalfurafine hydrochloride], the IC50 cell viability runs as follows: (ICRF193 0 nM) greater than 45.8 µM; (ICRF193 200 nM) greater than 45.8 µM.

`COc1ccccc1Oc1c(NS(=O)(=O)c2ccc(C(C)(C)C)cc2)nc(-c2ncccn2)nc1OCCO` [Bosentan]: the IC50 cell viability is greater than 45.8 µM (ICRF193 0 nM) and greater than 45.8 µM (ICRF193 200 nM).

As to `Cc1nccn1CC1CCc2c(c3ccccc3n2C)C1=O` (stereo unspecified) [Ondansetron], the IC50 cell viability runs as follows: (ICRF193 0 nM) greater than 45.8 µM; (ICRF193 200 nM) greater than 45.8 µM.

With `CC(=O)N(CC(O)CO)c1c(I)c(C(=O)NCCO)c(I)c(C(=O)NCC(O)CO)c1I` (stereo unspecified) [Ioxilan], the IC50 cell viability reads like this: (ICRF193 0 nM) greater than 45.8 µM; (ICRF193 200 nM) greater than 45.8 µM.

Regarding `O=[N+]([O-])c1cc(I)c(O)c(I)c1` [2,6-DIIODO-4-NITROPHENOL], the IC50 cell viability was greater than 45.8 µM (ICRF193 0 nM) and greater than 45.8 µM (ICRF193 200 nM).

Regarding `CN[C@H](CC(C)C)C(=O)N[C@H]1C(=O)N[C@@H](CC(N)=O)C(=O)N[C@H]2C(=O)N[C@H]3C(=O)N[C@H](C(=O)N[C@H](C(=O)O)c4cc(O)cc(O)c4-c4cc3ccc4O)[C@H](O)c3ccc(c(Cl)c3)Oc3cc2cc(c3O[C@@H]2O[C@H](CO)[C@@H](O)[C@H](O)[C@H]2O[C@H]2C[C@](C)(N)[C@H](O)[C@H](C)O2)Oc2ccc(cc2Cl)[C@H]1O` [Vancomycin hydrochloride], the IC50 cell viability runs as follows: (ICRF193 0 nM) greater than 45.8 µM; (ICRF193 200 nM) greater than 45.8 µM.
